pIC50: −log10 of the molar value.
Test system: HSSY-II tumor spheroid viability
Test: Anticancer human tumor HSSY-II cell line growth inhibition;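 further: spheroids exposed to compounds for seven days before reading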;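 on viability, T/C: percent of DMSO vehicle control viability so 100% = untreated level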
Conditions: spheroids with HUVEC and MSC; for pIC50: curve of first compound; for viability, T/C: stronger effect = lower value
In short: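 Complex tumor spheroids combined malignant cells with endothelial cells and mesenchymal stem cells. DNA-damaging drugs and DNA repair inhibitors were tested alone and in combination, at half-log dilutions down from clinical Cmax (top 10 microM if Cmax unknown), 0.25% DMSO final.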

[1] = second compound 0.003 µM, first compound 0.0316 µM
[2] = second compound 0.003 µM, first compound 0.1 µM
[3] = second compound 0.003 µM, first compound 0.316 µM
[4] = second compound 0.003 µM, first compound 1 µM
[5] = second compound 0.003 µM, first compound 3.16 µM
[6] = second compound 0.003 µM, first compound 10 µM
[7] = second compound 0.00949 µM, first compound 0.0316 µM
[8] = second compound 0.00949 µM, first compound 0.1 µM
[9] = second compound 0.00949 µM, first compound 0.316 µM
[10] = second compound 0.00949 µM, first compound 1 µM
[11] = second compound 0.00949 µM, first compound 3.16 µM
[12] = second compound 0.00949 µM, first compound 10 µM
[13] = second compound 0.03 µM, first compound 0.0316 µM
[14] = second compound 0.03 µM, first compound 0.1 µM
[15] = second compound 0.03 µM, first compound 0.316 µM
[16] = second compound 0.03 µM, first compound 1 µM
[17] = second compound 0.03 µM, first compound 3.16 µM
[18] = second compound 0.03 µM, first compound 10 µM
[19] = second compound 0.0949 µM, first compound 0.0316 µM
[20] = second compound 0.0949 µM, first compound 0.1 µM
[21] = second compound 0.0949 µM, first compound 0.316 µM
[22] = second compound 0.0949 µM, first compound 1 µM
[23] = second compound 0.0949 µM, first compound 3.16 µM
[24] = second compound 0.0949 µM, first compound 10 µM
[25] = second compound 0.3 µM, first compound 0.0316 µM
[26] = second compound 0.3 µM, first compound 0.1 µM
[27] = second compound 0.3 µM, first compound 0.316 µM
[28] = second compound 0.3 µM, first compound 1 µM
[29] = second compound 0.3 µM, first compound 3.16 µM
[30] = second compound 0.3 µM, first compound 10 µM

| SMILES | pIC50 (second compound 0.003 µM) | pIC50 (second compound 0.00949 µM) | pIC50 (second compound 0.03 µM) | pIC50 (second compound 0.0949 µM) | pIC50 (second compound 0.3 µM) | viability, T/C [1] | viability, T/C [2] | viability, T/C [3] | viability, T/C [4] | viability, T/C [5] | viability, T/C [6] | viability, T/C [7] | viability, T/C [8] | viability, T/C [9] | viability, T/C [10] | viability, T/C [11] | viability, T/C [12] | viability, T/C [13] | viability, T/C [14] | viability, T/C [15] | other results |
| --- | --- | --- | --- | --- | --- | --- | --- | --- | --- | --- | --- | --- | --- | --- | --- | --- | --- | --- | --- | --- | --- |
| CC(C)n1c(=O)n(C)c2cnc3cc(F)c(-c4ccc(OCCCN5CCCCC5)nc4)cc3c21 + CC[C@@]1(O)C(=O)OCc2c1cc1n(c2=O)Cc2cc3c(CN(C)C)c(O)ccc3nc2-1 | > 7.50 | > 7.50 | > 7.50 | > 7.50 | > 7.50 | 48% | 45.2% | 51.9% | 40.6% | 14% | 10.2% | 15% | 14.7% | 14.3% | 13% | 9.79% | 7.58% | 10.1% | 9.85% | 9.61% | viability, T/C [16]: 7.8%; viability, T/C [17]: 4.59%; viability, T/C [18]: 2.72%; viability, T/C [19]: 9.24%; viability, T/C [20]: 8.61%; viability, T/C [21]: 8.35%; viability, T/C [22]: 6.09%; viability, T/C [23]: 4.16%; viability, T/C [24]: 2.59%; viability, T/C [25]: 6.62%; viability, T/C [26]: 6.23%; viability, T/C [27]: 5.88%; viability, T/C [28]: 5.84%; viability, T/C [29]: 4.56%; viability, T/C [30]: 3.48% |
| CC1COCCN1c1cc(-c2ccnn2C)c2ccnc(-c3ccn[nH]3)c2n1 (stereo not given) + CC[C@@]1(O)C(=O)OCc2c1cc1n(c2=O)Cc2cc3c(CN(C)C)c(O)ccc3nc2-1 | > 7.50 | > 7.50 | > 7.50 | > 7.50 | > 7.50 | 6.17% | 4.36% | 2.62% | 1.92% | 1.88% | 2.35% | 4.45% | 3.49% | 2.45% | 1.99% | 1.87% | 2.14% | 3.87% | 3.3% | 2.51% | viability, T/C [16]: 1.83%; viability, T/C [17]: 1.68%; viability, T/C [18]: 2.01%; viability, T/C [19]: 3.97%; viability, T/C [20]: 3.08%; viability, T/C [21]: 2.54%; viability, T/C [22]: 1.86%; viability, T/C [23]: 1.59%; viability, T/C [24]: 1.83%; viability, T/C [25]: 3.93%; viability, T/C [26]: 3.43%; viability, T/C [27]: 2.61%; viability, T/C [28]: 1.6%; viability, T/C [29]: 1.43%; viability, T/C [30]: 1.82% |
| COc1cc(C)[nH]c(=O)c1CN1CCc2c(Cl)cc(C(OC)C3COC3)c(Cl)c2C1=O (stereo not given) + CC[C@@]1(O)C(=O)OCc2c1cc1n(c2=O)Cc2cc3c(CN(C)C)c(O)ccc3nc2-1 | < 5.00 | 6.36 | > 7.50 | > 7.50 | > 7.50 | 85.5% | 83.2% | 69.1% | 63% | 63.7% | 56.1% | 58.4% | 59.4% | 50.4% | 46% | 42.4% | 42.8% | 13.6% | 10.9% | 13.4% | viability, T/C [16]: 13.3%; viability, T/C [17]: 14.6%; viability, T/C [18]: 15.1%; viability, T/C [19]: 9.27%; viability, T/C [20]: 10.6%; viability, T/C [21]: 9.37%; viability, T/C [22]: 11%; viability, T/C [23]: 11.4%; viability, T/C [24]: 13.1%; viability, T/C [25]: 6.06%; viability, T/C [26]: 6.42%; viability, T/C [27]: 6.42%; viability, T/C [28]: 7.59%; viability, T/C [29]: 8.41%; viability, T/C [30]: 8.2% |
| COc1ccc([C@@H](O)c2cc(-c3ncnc4cc(N5CCOCC5)ccc34)c(F)cc2Cl)nn1 + CC[C@@]1(O)C(=O)OCc2c1cc1n(c2=O)Cc2cc3c(CN(C)C)c(O)ccc3nc2-1 | 5.86 | 6.04 | > 7.50 | > 7.50 | > 7.50 | 88.8% | 89.5% | 74.8% | 61.5% | 26.5% | 8.32% | 62.6% | 65.5% | 63.8% | 48.6% | 11.7% | 3.18% | 10.3% | 12.2% | 10.3% | viability, T/C [16]: 6.74%; viability, T/C [17]: 2.41%; viability, T/C [18]: 1.53%; viability, T/C [19]: 9.13%; viability, T/C [20]: 8.32%; viability, T/C [21]: 7.14%; viability, T/C [22]: 2.81%; viability, T/C [23]: 1.55%; viability, T/C [24]: 1.22%; viability, T/C [25]: 6.23%; viability, T/C [26]: 5.53%; viability, T/C [27]: 4.4%; viability, T/C [28]: 2.36%; viability, T/C [29]: 1.09%; viability, T/C [30]: 0.71% |
| [2H]c1nc(C)nc([2H])c1-c1cc(NC[C@@H](C)c2cccc3c(C(=O)NC)ccnc23)ncn1 + CC[C@@]1(O)C(=O)OCc2c1cc1n(c2=O)Cc2cc3c(CN(C)C)c(O)ccc3nc2-1 | < 5.00 | < 5.00 | > 7.50 | > 7.50 | > 7.50 | 89.6% | 93.9% | 90.5% | 96.5% | 87.9% | 78.7% | 62% | 64.5% | 61.5% | 63.9% | 58% | 53.9% | 14.2% | 13.6% | 11.1% | viability, T/C [16]: 13.1%; viability, T/C [17]: 14%; viability, T/C [18]: 16.3%; viability, T/C [19]: 11%; viability, T/C [20]: 11.4%; viability, T/C [21]: 9.48%; viability, T/C [22]: 10.8%; viability, T/C [23]: 11.6%; viability, T/C [24]: 12%; viability, T/C [25]: 6.74%; viability, T/C [26]: 7.54%; viability, T/C [27]: 7.42%; viability, T/C [28]: 6.87%; viability, T/C [29]: 7.23%; viability, T/C [30]: 8.83% |
